Results taken from patent US11464770B2, “Anticancer pharmaceutical composition” (NATIONAL CANCER CENTER, priority 2016, dated 2022).
pIC50: −log10 of the molar value. Where two headings read alike, the source gives them in different places.

How the values were obtained:
[1] = system: ovarian cancer cell lines; assay: Cell based assay, cell viability (CellTiter-Glo), ovarian cancer cell lines; settings: Homo sapiens; OVCAR-3 cells
Experimental: (§1) Commercially available bladder cancer, prostate cancer, lung cancer, breast cancer, blood cancer, pancreatic cancer, colorectal cancer, brain cancer, neuroblastoma, melanoma, liver cancer, cervical carcinoma, ovarian cancer, renal cancer, and papilloma cell lines were each treated with trypsin-EDTA and cultured, followed by being seeded in each well of a 96 well plate. After 24 hours of treatment at constant temperature, the respective cells were treated with the candidate compound so that a final concentration became 0 to 2 μM. The treated cells were additionally cultured for 72 hours, and cell viability was measured by using an ATP detection method (CellTiter-Glo® Luminescent Cell Viability Assay, Promega).

[2] = system: breast cancer cell lines (e.g. MDA-MB-231, SK-BR-3, MDA-MB-468, HCC1954); assay: Cell based assay, cell viability (CellTiter-Glo), breast cancer cell lines
Experimental: as §1

[3] = system: RT4: human urinary bladder transitional cell papilloma; assay: Cell based assay, cytotoxicity in RT4 papilloma cells (selectivity); settings: Homo sapiens, RT-4; RT4 cells
Experimental: as §1, with “After 24 hours of treatment at constant temperature, the respective cells were treated with the candidate compound so that a final concentration became 0 to 2 μM.” left out

[4] = Breast cancer cell line MDA-MB-231-L/DOX, 72 hours, CellTiter-Glo, read-out: IC50, MDA-MB-231-L/DOX
[5] = Homo sapiens, Breast cancer cell line BT-20, 72 hours, CellTiter-Glo, read-out: IC50, BT-20
[6] = Homo sapiens, Breast cancer cell line HCC1395, 72 hours, CellTiter-Glo, read-out: IC50, HCC1395
[7] = Homo sapiens, Breast cancer cell line HCC1954, 72 hours, CellTiter-Glo, read-out: IC50, HCC1954
[8] = Homo sapiens, Breast cancer cell line JIMT-1, 72 hours, CellTiter-Glo, read-out: IC50, JIMT-1
[9] = Homo sapiens, Breast cancer cell line MCF7, 72 hours, CellTiter-Glo, read-out: IC50, MCF7
[10] = Homo sapiens, Breast cancer cell line MDA-MB-231, 72 hours, CellTiter-Glo, read-out: IC50, MDA-MB-231
[11] = Homo sapiens, Breast cancer cell line MDA-MB-468, 72 hours, CellTiter-Glo, read-out: IC50, MDA-MB-468
[12] = Homo sapiens, Breast cancer cell line SK-BR-3, 72 hours, CellTiter-Glo, read-out: IC50, SK-BR-3
[13] = Homo sapiens, BT-20 cells, 72 hours treatment, CellTiter-Glo cell viability, read-out: IC50, Breast cancer cell line BT-20
[14] = Homo sapiens, HCC1395 cells, 72 hours treatment, CellTiter-Glo cell viability, read-out: IC50, Breast cancer cell line HCC1395
[15] = Homo sapiens, HCC1954 cells, 72 hours treatment, CellTiter-Glo cell viability, read-out: IC50, Breast cancer cell line HCC1954
[16] = Homo sapiens, JIMT-1 cells, 72 hours treatment, CellTiter-Glo cell viability, read-out: IC50, Breast cancer cell line JIMT-1
[17] = Homo sapiens, MCF7 cells, 72 hours treatment, CellTiter-Glo cell viability, read-out: IC50, Breast cancer cell line MCF7
[18] = Homo sapiens, MDA-MB-231 cells, 72 hours treatment, CellTiter-Glo cell viability, read-out: IC50, Breast cancer cell line MDA-MB-231
[19] = Homo sapiens, MDA-MB-468 cells, 72 hours treatment, CellTiter-Glo cell viability, read-out: IC50, Breast cancer cell line MDA-MB-468
[20] = Homo sapiens, SK-BR-3 cells, 72 hours treatment, CellTiter-Glo cell viability, read-out: IC50, Breast cancer cell line SK-BR-3
[21] = MDA-MB-231-L/DOX cells, 72 hours treatment, CellTiter-Glo cell viability, read-out: IC50, Breast cancer cell line MDA-MB-231-L/DOX

SMILES	pIC50 [1]	pIC50 [2, 4]	pIC50 [2, 5]	pIC50 [2, 6]	pIC50 [2, 7]	pIC50 [2, 8]	pIC50 [2, 9]	pIC50 [2, 10]	pIC50 [2, 11]	pIC50 [2, 12]	pIC50 [3]	pIC50 [2, 13]	pIC50 [2, 14]	pIC50 [2, 15]	pIC50 [2, 16]	pIC50 [2, 17]	pIC50 [2, 18]	pIC50 [2, 19]	pIC50 [2, 20]	pIC50 [2, 21]
CC(=O)c1c(SCc2ccc(F)c(Cl)c2)[nH]c2c(Br)ccc(Cl)c2c1=O [Compound 30, 3-acetyl-8-bromo-5-chloro-2-((3-chloro-4-fluorobenzyl)thio)quinolin-4(1H)-one]	< 5.70	< 5.70	< 5.70	< 5.00	< 5.70	< 5.00	< 5.70	< 5.70	< 5.70	< 5.70	< 5.00	–	–	–	–	–	–	–	–	–
CSc1c(C(C)=O)c(=O)c2c(Cl)ccc(Br)c2n1C [Compound 5, 3-acetyl-8-bromo-5-chloro-1-methyl-2-(methylthio)quinolin-4(1H)-one]	< 5.70	< 5.70	< 5.70	< 5.00	< 5.70	< 5.00	< 5.70	< 5.70	< 5.70	< 5.70	< 5.00	–	–	–	–	–	–	–	–	–
CSc1c(C(C)=O)c(=O)c2c(Cl)ccc(Br)c2n1C(C)=O [Compound 18, 1,1′-(8-bromo-5-chloro-2-(methylthio)-4-oxoquinoline-1,3(4H)-diyl)bis(ethan-1-one)]	< 5.70	< 5.70	< 5.70	< 5.00	< 5.70	< 5.00	< 5.70	< 5.70	< 5.70	< 5.70	< 5.00	–	–	–	–	–	–	–	–	–
CC(=O)c1c([S+]([O-])Cc2ccccc2C#N)[nH]c2c(Br)ccc(Cl)c2c1=O (centres unmarked) [Compound 58, 2-(((3-acetyl-8-bromo-5-chloro-4-oxo-1,4-dihydroquinolin-2-yl)sulfinyl)methyl)benzonitrile]	6.15	< 5.70	< 5.70	< 5.00	< 5.70	< 5.00	< 5.70	< 5.70	< 5.70	6.21	< 5.00	–	–	–	–	–	–	–	–	–
CC(=O)c1c(S(C)(=O)=O)n(C(=O)c2ccc(Br)cc2)c2c(Br)ccc(Cl)c2c1=O [Compound 21, 3-acetyl-8-bromo-1-(4-bromobenzoyl)-5-chloro-2-(methylsulfonyl)quinolin-4(1H)-one]	< 5.70	< 5.70	< 5.70	< 5.00	< 5.70	< 5.00	< 5.70	< 5.70	< 5.70	< 5.70	< 5.00	–	–	–	–	–	–	–	–	–
CC(=O)c1c(SCc2ccccc2)[nH]c2c(Br)ccc(Cl)c2c1=O [Compound 3, 3-acetyl-2-(benzylthio)-8-bromo-5-chloroquinolin-4(1H)-one]	< 5.70	< 5.70	< 5.70	< 5.00	< 5.70	< 5.00	< 5.70	< 5.70	< 5.70	< 5.70	< 5.00	–	–	–	–	–	–	–	–	–
CC(=O)c1c([S+]([O-])Cc2ccc(S(F)(F)(F)(F)F)cc2)[nH]c2c(Br)ccc(Cl)c2c1=O (centres unmarked) [Compound 68, 3-acetyl-8-bromo-5-chloro-2-((4-(pentafluoro-16-sulfanyl)benzyl)sulfinyl)quinolin-4(1H)-one]	5.94	< 5.70	< 5.70	< 5.00	< 5.70	< 5.00	< 5.70	5.91	< 5.70	5.91	< 5.00	–	–	–	–	–	–	–	–	–
CC(=O)c1c([S+]([O-])Cc2ccc(Cl)nc2)[nH]c2c(Br)ccc(Cl)c2c1=O (centres unmarked) [Compound 104, 3-acetyl-8-bromo-5-chloro-2-(((6-chloropyridin-3-yl)methyl)sulfinyl)quinolin-4(1H)-one]	6.08	–	–	–	–	–	–	–	–	–	< 5.00	< 5.70	< 5.00	5.98	< 5.00	< 5.70	5.81	5.84	6.03	< 5.70
CSc1c(C(C)=O)c(=O)c2c(Cl)ccc(Br)c2n1S(=O)(=O)c1ccc(C(C)(C)C)cc1 [Compound 40, 3-acetyl-8-bromo-1-((4-(tert-butyl)phenyl)sulfonyl)-5-chloro-2-(methylthio)quinolin-4(1H)-one]	< 5.70	< 5.70	< 5.70	< 5.00	< 5.70	< 5.00	< 5.70	< 5.70	< 5.70	< 5.70	< 5.00	–	–	–	–	–	–	–	–	–
COCSc1[nH]c2c(Br)ccc(Cl)c2c(=O)c1C(C)=O [Compound 61, 3-acetyl-8-bromo-5-chloro-2-((methoxymethyl)thio)quinolin-4(1H)-one]	< 5.70	< 5.70	< 5.70	< 5.00	< 5.70	< 5.00	< 5.70	< 5.70	< 5.70	< 5.70	< 5.00	–	–	–	–	–	–	–	–	–
CC(=O)c1c([S+](C)[O-])[nH]c2c(Cl)ccc(Cl)c2c1=O (centres unmarked) [Compound 6, 3-acetyl-5,8-dichloro-2-(methylsulfinyl)quinolin-4(1H)-one]	6.14	< 5.70	< 5.70	< 5.00	< 5.70	< 5.00	< 5.70	< 5.70	< 5.70	5.95	< 5.00	–	–	–	–	–	–	–	–	–
CC(=O)c1c(Sc2ccc(Br)cc2)[nH]c2c(Br)ccc(Cl)c2c1=O [Compound 16, 3-acetyl-8-bromo-2-((4-bromophenyl)thio)-5-chloroquinolin-4(1H)-one]	< 5.70	< 5.70	< 5.70	< 5.00	< 5.70	< 5.00	< 5.70	< 5.70	< 5.70	< 5.70	< 5.00	–	–	–	–	–	–	–	–	–
CSc1[nH]c2ccc(F)cc2c(=O)c1C(C)=O [Compound 8, 1-(6-fluoro-4-hydroxy-2-(methylthio)quinolin-3-yl)ethan-1-one]	< 5.70	< 5.70	< 5.70	< 5.00	< 5.70	< 5.00	< 5.70	< 5.70	< 5.70	< 5.70	< 5.00	–	–	–	–	–	–	–	–	–
CC(=O)c1c(SCc2ccc(Cl)cc2)[nH]c2c(Br)ccc(Cl)c2c1=O [Compound 10, 3-acetyl-8-bromo-5-chloro-2-((4-chlorobenzyl)thio)quinolin-4(1H)-one]	< 5.70	< 5.70	< 5.70	< 5.00	< 5.70	< 5.00	< 5.70	< 5.70	< 5.70	< 5.70	< 5.00	–	–	–	–	–	–	–	–	–
Cc1cc(C[S+]([O-])c2[nH]c3c(Cl)ccc(Cl)c3c(=O)c2C(=O)c2ccccc2)no1 (centres unmarked) [Compound 88, 3-benzoyl-5,8-dichloro-2-(((5-methylisoxazol-3-yl)methyl)sulfinyl)quinolin-4(1H)-one]	< 5.70	–	–	–	–	–	–	–	–	–	< 5.00	< 5.70	< 5.00	< 5.70	< 5.00	< 5.70	< 5.70	< 5.70	< 5.70	< 5.70
CC(=O)c1c([S+]([O-])Cc2ccc(C(=O)c3ccccc3)cc2)[nH]c2c(Br)ccc(Cl)c2c1=O (centres unmarked) [Compound 63, 3-acetyl-2-((4-benzoylbenzyl)sulfinyl)-8-bromo-5-chloroquinolin-4(1H)-one]	< 5.70	< 5.70	< 5.70	< 5.00	< 5.70	< 5.00	< 5.70	< 5.70	< 5.70	< 5.70	< 5.00	–	–	–	–	–	–	–	–	–
CC(=O)c1c([S+]([O-])Cc2ccc(N)nc2)[nH]c2c(Br)ccc(Cl)c2c1=O (centres unmarked) [Compound 100, 3-acetyl-2-(((6-aminopyridin-3-yl)methyl)sulfinyl)-8-bromo-5-chloroquinolin-4(1H)-one]	< 5.70	–	–	–	–	–	–	–	–	–	< 5.00	< 5.70	< 5.00	< 5.70	< 5.00	< 5.70	< 5.70	< 5.70	< 5.70	< 5.70
CC(=O)c1c([S+]([O-])Cc2ccc(NS(C)(=O)=O)cc2)[nH]c2c(Br)ccc(Cl)c2c1=O (centres unmarked) [Compound 103, N-(4-(((3-acetyl-8-bromo-5-chloro-4-oxo-1,4-dihydroquinolin-2-yl)sulfinyl)methyl)phenyl)methane-sulfonamide]	< 5.70	–	–	–	–	–	–	–	–	–	< 5.00	< 5.70	< 5.00	< 5.70	< 5.00	< 5.70	< 5.70	< 5.70	5.76	< 5.70
COCCNc1ccc(C[S+]([O-])c2[nH]c3c(Br)ccc(Cl)c3c(=O)c2C(C)=O)cn1 (centres unmarked) [Compound 105, 3-acetyl-8-bromo-5-chloro-2-(((6-((2-methoxyethyl)amino)pyridin-3-yl)methyl)sulfinyl)quinolin-4(1H)-one]	< 5.70	–	–	–	–	–	–	–	–	–	< 5.00	< 5.70	< 5.00	< 5.70	< 5.00	< 5.70	< 5.70	< 5.70	< 5.70	< 5.70
